How the values were obtained:
[1] = tested on: serpentine leaf miner (Liriomyza trifolii); assay: Test Example 1: controlling effects against serpentine leaf miner, Example 1 dilution with polyoxyethylene alkyl ether phosphoric acid ester; format: in vivo
Method: (§1) The above components are mixed, and the obtained solution is diluted 2,000 times or 4,000 times with water containing a polyoxyethylene alkyl ether phosphoric acid ester, followed by spraying (active ingredient concentration: 25 ppm or 12.5 ppm).
Kidney bean planted in a pot having a diameter of 7 cm was put in a breeding case wherein adults of serpentine leaf miner (Liriomyza trifolii) were released and permitted to lay eggs for 2 days. Thereafter, the test plant was taken out and left for 1 day, and then, a water-diluted liquid containing 100 ppm or 250 ppm of the polyoxyethylene alkyl ether phosphoric acid ester prepared in the above Example 1, was sprayed twice on each of the front and rear sides of the Kidney bean leaf by means of a hand spray. After drying in air, the Kidney bean was left to stand for 5 days in an illuminated constant temperature chamber at 25° C., whereupon the number of pupae on each leaf was counted, and the protective value was calculated by the following formula. The test was repeated twice. As the polyoxyethylene alkyl ether phosphoric acid ester, PHOSPHANOL RD-510Y, PHOSPHANOL RS-610 and PHOSPHANOL RS-710 (manufactured by Toho Chemical Industry Co., Ltd.) and ADEKA COL PS-440E (manufactured by ADEKA) were used.
(§2) For the purpose of comparison, a water-diluted liquid having no polyoxyethylene alkyl ether phosphoric acid ester added, was prepared, and spray treatment was carried out in the same manner.
(§3) Protective value (%)=(1−(the number of pupae at treated section/the number of pupae at untreated section))×100

serpentine leaf miner [2] = assay: Test Example 2: controlling effects against serpentine leaf miner, Example 1 dilution with polyoxyethylene arylether phosphoric acid ester; format: in vivo, Liriomyza trifolii
Method: as §1, §3
Kidney bean planted in a pot having a diameter of 7 cm was put in a breeding case wherein adults of serpentine leaf miner were released and permitted to lay eggs for 2 days. Thereafter, the test plant was taken out and left for 1 day, and then, a water-diluted liquid containing 50 ppm of a polyoxyethylene arylether phosphoric acid ester, prepared by replacing the polyoxyethylene alkyl ether phosphoric acid ester in the above Example 1 by a polyoxyethylene arylether phosphoric acid ester, was sprayed twice on each of the front and rear sides of the Kidney bean leaf by means of a hand spray. After drying in air, the Kidney bean was left to stand for 5 days in an illuminated constant temperature chamber at 25° C., whereupon the number of pupae on each leaf was counted, and the protective value was calculated in the same manner as in Test Example 1. The test was repeated twice. As the polyoxyethylene arylether phosphoric acid ester, and ADEKA COL CS-1361E (manufactured by ADEKA) was used.
For the purpose of comparison, a water-diluted liquid n having no polyoxyethylene arylether phosphoric acid ester added, was prepared, and spray treatment was carried out in the same manner.

serpentine leaf miner [3] = assay: Test Example 3: controlling effects against serpentine leaf miner, liquid composition of Example 4 diluted with water; format: in vivo, Liriomyza trifolii
Method: […] of Compound 1 and 20.0 g of a polyoxyalkylene phosphoric acid ester surfactant are dissolved in 74.7 g of N,N-dimethylacetamide to obtain 100 g of a transparent liquid composition containing 5 wt % of Compound 1.
as §3
Kidney bean planted in a pot having a diameter of 7 cm was put in a breeding case wherein adults of serpentine leaf miner were released and permitted to lay eggs for 2 days. Thereafter, the test plant was taken out and left for 2 days, the liquid composition obtained in accordance with the above Example 4 was diluted with water to prepare a test liquid containing 50 ppm or 100 ppm of the polyoxyalkylene phosphoric acid ester surfactant. Each test liquid was a suspension solution having fine particles uniformly dispersed. The suspension solution was sprayed twice on each of the front and rear sides of the Kidney bean leaf by means of a hand spray. After drying in air, the Kidney bean was left to stand for 5 days in an illuminated constant temperature chamber at 25° C., whereupon the number of pupae on each leaf was counted, and the protective value was calculated in the same manner as in Test Example 1. The test was repeated twice. As the polyoxyalkylene phosphoric acid ester surfactant, ADEKA COL PS-440E (manufactured by ADEKA) and PHOSPHANOL RS-610 (manufactured by Toho Chemical Industry, Co., Ltd.) as polyoxyethylene alkyl ether phosphoric acid esters, and ADEKA COL CS-1361E (manufactured by ADECA) as a polyoxyethylene arylether phosphoric acid ester were used.
as §2

CC(NC(=O)c1cc(Cl)cc(Br)c1NC(=O)c1cc(Br)nn1-c1ncccc1Cl)C1CC1 (stereo not drawn) [Compound 1, 3-Bromo-N-(2-bromo-4-chloro-6-(1-cyclopropylethylcarbamoyl)phenyl)-1-(3-chloropyridin-2-yl)-1H-pyrazole-5-carboxamide]
Protective value (%) ([1]; Compound 1 12.5 ppm + PS-440E 100 ppm, foliar spray on Kidney bean, pupae counted after 5 days): 100%
Protective value (%) ([1]; Compound 1 12.5 ppm + PS-440E 250 ppm, foliar spray on Kidney bean, pupae counted after 5 days): 100%
Protective value (%) ([1]; Compound 1 12.5 ppm + RD-510Y 250 ppm, foliar spray on Kidney bean, pupae counted after 5 days): 70%
Protective value (%) ([1]; Compound 1 12.5 ppm + RS-610 250 ppm, foliar spray on Kidney bean, pupae counted after 5 days): 100%
Protective value (%) ([1]; Compound 1 12.5 ppm + RS-710 250 ppm, foliar spray on Kidney bean, pupae counted after 5 days): 100%
Protective value (%) ([1]; Compound 1 12.5 ppm, no polyoxyethylene alkyl ether phosphoric acid ester (comparative section)): 0%
Protective value (%) ([1]; Compound 1 25 ppm + PS-440E 100 ppm, foliar spray on Kidney bean, pupae counted after 5 days): 100%
Protective value (%) ([1]; Compound 1 25 ppm + PS-440E 250 ppm, foliar spray on Kidney bean, pupae counted after 5 days): 100%
Protective value (%) ([1]; Compound 1 25 ppm + RD-510Y 250 ppm, foliar spray on Kidney bean, pupae counted after 5 days): 100%
Protective value (%) ([1]; Compound 1 25 ppm + RS-610 250 ppm, foliar spray on Kidney bean, pupae counted after 5 days): 100%
Protective value (%) ([1]; Compound 1 25 ppm + RS-710 250 ppm, foliar spray on Kidney bean, pupae counted after 5 days): 100%
Protective value (%) ([1]; Compound 1 25 ppm, no polyoxyethylene alkyl ether phosphoric acid ester (comparative section)): 0%
Protective value (%) (serpentine leaf miner [2]; Compound 1 12.5 ppm + CS-1361E 50 ppm, foliar spray on Kidney bean, pupae counted after 5 days): 100%
Protective value (%) (serpentine leaf miner [2]; Compound 1 12.5 ppm, no polyoxyethylene arylether phosphoric acid ester (comparative section)): 0%
Protective value (%) (serpentine leaf miner [2]; Compound 1 25 ppm + CS-1361E 50 ppm, foliar spray on Kidney bean, pupae counted after 5 days): 100%
Protective value (%) (serpentine leaf miner [2]; Compound 1 25 ppm, no polyoxyethylene arylether phosphoric acid ester (comparative section)): 50%
Protective value (%) (serpentine leaf miner [3]; Compound 1 12.5 ppm + PS-440E 50 ppm (Example 4 composition), foliar spray on Kidney bean, pupae counted after 5 days): 77%
Protective value (%) (serpentine leaf miner [3]; Compound 1 12.5 ppm + RS-610 50 ppm (Example 4 composition), foliar spray on Kidney bean, pupae counted after 5 days): 89%
Protective value (%) (serpentine leaf miner [3]; Compound 1 12.5 ppm, no polyoxyalkylene phosphoric acid ester surfactant (comparative section)): 0%
Protective value (%) (serpentine leaf miner [3]; Compound 1 25 ppm + CS-1361E 100 ppm (Example 4 composition), foliar spray on Kidney bean, pupae counted after 5 days): 100%
Protective value (%) (serpentine leaf miner [3]; Compound 1 25 ppm, no polyoxyalkylene phosphoric acid ester surfactant (comparative section)): 46%

Source: patent publication US20110130427A1, “PESTICIDAL COMPOSITION” (ISHIHARA SANGYO KAISHA, LTD., priority 2008, published 2011)
